According to PubChem BioAssay (NCI):
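Method: 48-hour compound exposure of cells in 96-well plates, five concentrations, linear interpolation of endpoints. Abbreviation: GI50, concentration required for 50% inhibition of growth. Definition used: TGI = concentration required for complete inhibition of growth.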

Legend:
Experiment in all cases: inhibition of tumour cell growth, NCI panel, 48 h
[1] = test system: T-47D breast
[2] = test system: SF-539 CNS
[3] = test system: SF-295 CNS
[4] = test system: M14 melanoma
[5] = test system: EKVX NSCLC
[6] = test system: SNB-75 CNS
[7] = test system: MDA-MB-435
[8] = test system: LOX IMVI melanoma
[9] = test system: UO-31 renal
[10] = test system: U251 CNS
[11] = test system: BT-549 breast
[12] = test system: TK-10 renal
[13] = test system: HCT-116 colon
[14] = test system: HCT-15 colon
[15] = test system: SF-268 CNS
[16] = test system: HS 578T breast
[17] = test system: NCI-H226 lung
[18] = test system: UACC-62 melanoma
[19] = test system: MALME-3M melanoma
[20] = test system: SW-620 colon
[21] = test system: RPMI-8226 leukemia
[22] = test system: HT29 colon
[23] = test system: OVCAR-8 ovarian
[24] = test system: HCC-2998 colon
[25] = test system: NCI/ADR-RES ovarian
[26] = test system: HL-60(TB) leukemia
[27] = test system: HOP-62 NSCLC
[28] = test system: 786-0 renal
[29] = test system: SK-MEL-28 melanoma
[30] = test system: A498 renal

Compound: COc1ccc(/C=N/NC(=O)c2[nH]c3ccc(Br)cc3c2-c2ccccc2)o1
- TGI [1]: 20600 nM
- GI50 [2]: 72 nM
- TGI [2]: 237 nM
- GI50 [3]: 165 nM
- TGI [3]: 2880 nM
- GI50 [4]: 299 nM
- TGI [4]: 15300 nM
- GI50 [5]: 968 nM
- TGI [5]: 29400 nM
- GI50 [6]: 165 nM
- TGI [6]: 3530 nM
- GI50 [7]: 112 nM
- TGI [7]: 303 nM
- GI50 [8]: 35.4 nM
- TGI [8]: 12300 nM
- GI50 [9]: 470 nM
- TGI [9]: 21500 nM
- GI50 [10]: 309 nM
- TGI [10]: 11000 nM
- GI50 [11]: 177 nM
- TGI [11]: 667 nM
- GI50 [12]: 2260 nM
- TGI [12]: 37100 nM
- GI50 [13]: 108 nM
- TGI [13]: 1100 nM
- GI50 [14]: 219 nM
- TGI [14]: 3040 nM
- GI50 [15]: 500 nM
- TGI [15]: 27800 nM
- GI50 [16]: 570 nM
- TGI [16]: 21000 nM
- GI50 [17]: 276 nM
- TGI [17]: 7950 nM
- GI50 [18]: 122 nM
- TGI [18]: 13900 nM
- GI50 [19]: 202 nM
- TGI [19]: 17700 nM
- GI50 [20]: 196 nM
- TGI [20]: 28300 nM
- GI50 [21]: 161 nM
- TGI [21]: > 32500 nM
- GI50 [22]: 66.6 nM
- GI50 [23]: 143 nM
- TGI [23]: 1570 nM
- GI50 [24]: 382 nM
- TGI [24]: 14300 nM
- GI50 [25]: 53.3 nM
- TGI [25]: 2590 nM
- GI50 [26]: 74.8 nM
- TGI [26]: 265 nM
- GI50 [27]: 467 nM
- TGI [27]: 20800 nM
- GI50 [28]: 353 nM
- TGI [28]: 13700 nM
- GI50 [29]: 418 nM
- TGI [29]: 15800 nM
- GI50 [30]: 16700 nM
- TGI [30]: 37300 nM
